#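 Each compound was tested at five concentrations against cells in 96-well plates for 48 hours. GI50 is the concentration that inhibits growth by half. TGI: total growth inhibition.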
# How the values were obtained:
# Assay in all cases: NCI anticancer screen, dose series, 48 h
# 786-0 renal = test system: 786-0 renal
# A498 renal = test system: A498 renal
# A549 NSCLC = test system: A549 NSCLC
# ACHN renal = test system: ACHN renal
# CAKI-1 renal = test system: CAKI-1 renal
# CCRF-CEM leukemia = test system: CCRF-CEM leukemia
# COLO 205 colon = test system: COLO 205 colon
# DU-145 prostate = test system: DU-145 prostate
# EKVX NSCLC = test system: EKVX NSCLC
# HCC-2998 colon = test system: HCC-2998 colon
# HCT-116 colon = test system: HCT-116 colon
# HCT-15 colon = test system: HCT-15 colon
# HL-60(TB) leukemia = test system: HL-60(TB) leukemia
# HOP-62 NSCLC = test system: HOP-62 NSCLC
# HOP-92 NSCLC = test system: HOP-92 NSCLC
# HS 578T breast = test system: HS 578T breast
# HT29 colon = test system: HT29 colon
# IGROV1 ovarian = test system: IGROV1 ovarian
# KM12 colon = test system: KM12 colon
# LOX IMVI melanoma = test system: LOX IMVI melanoma
# M14 melanoma = test system: M14 melanoma
# MALME-3M melanoma = test system: MALME-3M melanoma
# MCF7 breast = test system: MCF7 breast
# MDA-MB-231 breast = test system: MDA-MB-231 breast
# MDA-MB-435 = test system: MDA-MB-435
# MDA-N = test system: MDA-N
# NCI-H23 lung = test system: NCI-H23 lung
# NCI-H460 lung = test system: NCI-H460 lung
# NCI-H522 lung = test system: NCI-H522 lung
# NCI/ADR-RES ovarian = test system: NCI/ADR-RES ovarian
# OVCAR-3 ovarian = test system: OVCAR-3 ovarian
# OVCAR-4 ovarian = test system: OVCAR-4 ovarian
# OVCAR-5 ovarian = test system: OVCAR-5 ovarian
# OVCAR-8 ovarian = test system: OVCAR-8 ovarian
# PC-3 prostate = test system: PC-3 prostate
# RXF 393 renal = test system: RXF 393 renal
# SF-268 CNS = test system: SF-268 CNS
# SF-295 CNS = test system: SF-295 CNS
# SF-539 CNS = test system: SF-539 CNS
# SK-MEL-2 melanoma = test system: SK-MEL-2 melanoma
# SK-MEL-28 melanoma = test system: SK-MEL-28 melanoma
# SK-MEL-5 melanoma = test system: SK-MEL-5 melanoma
# SK-OV-3 ovarian = test system: SK-OV-3 ovarian
# SN12C renal = test system: SN12C renal
# SNB-19 CNS = test system: SNB-19 CNS
# SNB-75 CNS = test system: SNB-75 CNS
# SR leukemia = test system: SR leukemia
# SW-620 colon = test system: SW-620 colon
# T-47D breast = test system: T-47D breast
# TK-10 renal = test system: TK-10 renal
# U251 CNS = test system: U251 CNS
# UACC-257 melanoma = test system: UACC-257 melanoma
# UACC-62 melanoma = test system: UACC-62 melanoma
# UO-31 renal = test system: UO-31 renal
# K-562 leukemia = test system: K-562 leukemia
# MOLT-4 leukemia = test system: MOLT-4 leukemia
# NCI-H226 lung = test system: NCI-H226 lung
# RPMI-8226 leukemia = test system: RPMI-8226 leukemia
smiles,measurement,setting,value
CCCn1c2c(c3ccccc3c1=O)C(=O)c1cc3c(cc1-2)OCO3,GI50,786-0 renal,77.2 µM
same,TGI,786-0 renal,> 100 µM
same,GI50,A498 renal,> 100 µM
same,TGI,A498 renal,> 100 µM
same,GI50,A549 NSCLC,> 100 µM
same,TGI,A549 NSCLC,> 100 µM
same,GI50,ACHN renal,> 100 µM
same,TGI,ACHN renal,> 100 µM
same,GI50,CAKI-1 renal,97.3 µM
same,TGI,CAKI-1 renal,> 100 µM
same,GI50,CCRF-CEM leukemia,> 100 µM
same,TGI,CCRF-CEM leukemia,> 100 µM
same,GI50,COLO 205 colon,> 100 µM
same,TGI,COLO 205 colon,> 100 µM
same,GI50,DU-145 prostate,> 100 µM
same,TGI,DU-145 prostate,> 100 µM
same,GI50,EKVX NSCLC,91.2 µM
same,TGI,EKVX NSCLC,> 100 µM
same,GI50,HCC-2998 colon,16.9 µM
same,TGI,HCC-2998 colon,99.6 µM
same,GI50,HCT-116 colon,30.5 µM
same,TGI,HCT-116 colon,> 100 µM
same,GI50,HCT-15 colon,> 100 µM
same,TGI,HCT-15 colon,> 100 µM
same,GI50,HL-60(TB) leukemia,> 100 µM
same,TGI,HL-60(TB) leukemia,> 100 µM
same,GI50,HOP-62 NSCLC,> 100 µM
same,TGI,HOP-62 NSCLC,> 100 µM
same,GI50,HOP-92 NSCLC,0.159 µM
same,TGI,HOP-92 NSCLC,0.458 µM
same,GI50,HS 578T breast,> 100 µM
same,TGI,HS 578T breast,> 100 µM
same,GI50,HT29 colon,> 100 µM
same,TGI,HT29 colon,> 100 µM
same,GI50,IGROV1 ovarian,44.4 µM
same,TGI,IGROV1 ovarian,> 100 µM
same,GI50,KM12 colon,31.5 µM
same,TGI,KM12 colon,> 100 µM
same,GI50,LOX IMVI melanoma,> 100 µM
same,TGI,LOX IMVI melanoma,> 100 µM
same,GI50,M14 melanoma,> 100 µM
same,TGI,M14 melanoma,> 100 µM
same,GI50,MALME-3M melanoma,> 100 µM
same,TGI,MALME-3M melanoma,> 100 µM
same,GI50,MCF7 breast,9.39 µM
same,TGI,MCF7 breast,> 100 µM
same,GI50,MDA-MB-231 breast,> 100 µM
same,TGI,MDA-MB-231 breast,> 100 µM
same,GI50,MDA-MB-435,> 100 µM
same,TGI,MDA-MB-435,> 100 µM
same,GI50,MDA-N,> 100 µM
same,TGI,MDA-N,> 100 µM
same,GI50,NCI-H23 lung,> 100 µM
same,TGI,NCI-H23 lung,> 100 µM
same,GI50,NCI-H460 lung,26.8 µM
same,TGI,NCI-H460 lung,> 100 µM
same,GI50,NCI-H522 lung,60.1 µM
same,TGI,NCI-H522 lung,> 100 µM
same,GI50,NCI/ADR-RES ovarian,76.9 µM
same,TGI,NCI/ADR-RES ovarian,> 100 µM
same,GI50,OVCAR-3 ovarian,21 µM
same,TGI,OVCAR-3 ovarian,> 100 µM
same,GI50,OVCAR-4 ovarian,> 100 µM
same,TGI,OVCAR-4 ovarian,> 100 µM
same,GI50,OVCAR-5 ovarian,> 100 µM
same,TGI,OVCAR-5 ovarian,> 100 µM
same,GI50,OVCAR-8 ovarian,> 100 µM
same,TGI,OVCAR-8 ovarian,> 100 µM
same,GI50,PC-3 prostate,71.1 µM
same,TGI,PC-3 prostate,> 100 µM
same,GI50,RXF 393 renal,> 100 µM
same,TGI,RXF 393 renal,> 100 µM
same,GI50,SF-268 CNS,> 100 µM
same,TGI,SF-268 CNS,> 100 µM
same,GI50,SF-295 CNS,44.8 µM
same,TGI,SF-295 CNS,> 100 µM
same,GI50,SF-539 CNS,> 100 µM
same,TGI,SF-539 CNS,> 100 µM
same,GI50,SK-MEL-2 melanoma,> 100 µM
same,TGI,SK-MEL-2 melanoma,> 100 µM
same,GI50,SK-MEL-28 melanoma,> 100 µM
same,TGI,SK-MEL-28 melanoma,> 100 µM
same,GI50,SK-MEL-5 melanoma,> 100 µM
same,TGI,SK-MEL-5 melanoma,> 100 µM
same,GI50,SK-OV-3 ovarian,> 100 µM
same,TGI,SK-OV-3 ovarian,> 100 µM
same,GI50,SN12C renal,> 100 µM
same,TGI,SN12C renal,> 100 µM
same,GI50,SNB-19 CNS,> 100 µM
same,TGI,SNB-19 CNS,> 100 µM
same,GI50,SNB-75 CNS,> 100 µM
same,TGI,SNB-75 CNS,> 100 µM
same,GI50,SR leukemia,6.1 µM
same,TGI,SR leukemia,> 100 µM
same,GI50,SW-620 colon,83.2 µM
same,TGI,SW-620 colon,> 100 µM
same,GI50,T-47D breast,> 100 µM
same,TGI,T-47D breast,> 100 µM
same,GI50,TK-10 renal,86.9 µM
same,TGI,TK-10 renal,> 100 µM
same,GI50,U251 CNS,> 100 µM
same,TGI,U251 CNS,> 100 µM
same,GI50,UACC-257 melanoma,> 100 µM
same,TGI,UACC-257 melanoma,> 100 µM
same,GI50,UACC-62 melanoma,> 100 µM
same,TGI,UACC-62 melanoma,> 100 µM
same,GI50,UO-31 renal,> 100 µM
same,TGI,UO-31 renal,> 100 µM
N=C1N(c2ccccc2)C(=S)C(=Nc2ccccc2)N1c1ccccc1,TGI,786-0 renal,22.2 µM
same,TGI,A498 renal,31.8 µM
same,TGI,A549 NSCLC,42.1 µM
same,TGI,ACHN renal,20.6 µM
same,TGI,CAKI-1 renal,27.7 µM
same,TGI,CCRF-CEM leukemia,> 20.7 µM
same,TGI,COLO 205 colon,12.1 µM
same,TGI,DU-145 prostate,31.2 µM
same,TGI,EKVX NSCLC,53.1 µM
same,TGI,HCC-2998 colon,30.7 µM
same,TGI,HCT-116 colon,7.26 µM
same,TGI,HCT-15 colon,21.9 µM
same,TGI,HL-60(TB) leukemia,10.9 µM
same,TGI,HOP-62 NSCLC,34.1 µM
same,TGI,HOP-92 NSCLC,22.9 µM
same,TGI,HS 578T breast,47.4 µM
same,TGI,HT29 colon,18.3 µM
same,TGI,IGROV1 ovarian,25.9 µM
same,TGI,K-562 leukemia,9.59 µM
same,TGI,KM12 colon,27.2 µM
same,TGI,LOX IMVI melanoma,5.14 µM
same,TGI,M14 melanoma,23.6 µM
same,TGI,MALME-3M melanoma,26.6 µM
same,TGI,MCF7 breast,3.46 µM
same,TGI,MDA-MB-231 breast,20.9 µM
same,TGI,MDA-MB-435,3.94 µM
same,TGI,MDA-N,6.1 µM
same,TGI,MOLT-4 leukemia,7.55 µM
same,TGI,NCI-H226 lung,36.3 µM
same,TGI,NCI-H23 lung,18 µM
same,TGI,NCI-H460 lung,31 µM
same,TGI,NCI-H522 lung,7.72 µM
same,TGI,NCI/ADR-RES ovarian,38.6 µM
same,TGI,OVCAR-3 ovarian,9.55 µM
same,TGI,OVCAR-4 ovarian,26.8 µM
same,TGI,OVCAR-5 ovarian,32.1 µM
same,TGI,OVCAR-8 ovarian,16.7 µM
same,TGI,PC-3 prostate,24.8 µM
same,TGI,RPMI-8226 leukemia,13.9 µM
same,TGI,RXF 393 renal,25 µM
same,TGI,SF-268 CNS,29.7 µM
same,TGI,SF-295 CNS,30.5 µM
same,TGI,SF-539 CNS,24.9 µM
same,TGI,SK-MEL-2 melanoma,12.4 µM
same,TGI,SK-MEL-28 melanoma,31.7 µM
same,TGI,SK-MEL-5 melanoma,6.21 µM
same,TGI,SK-OV-3 ovarian,33 µM
same,TGI,SN12C renal,27.8 µM
same,TGI,SNB-19 CNS,30.4 µM
same,TGI,SNB-75 CNS,29.4 µM
same,TGI,SR leukemia,> 48.4 µM
same,TGI,SW-620 colon,13 µM
same,TGI,T-47D breast,9.21 µM
same,TGI,TK-10 renal,28.2 µM
same,TGI,U251 CNS,27.3 µM
same,TGI,UACC-257 melanoma,7.52 µM
same,TGI,UACC-62 melanoma,13.5 µM
same,TGI,UO-31 renal,16.7 µM

# Reference: PubChem BioAssay (NCI)
